How the values were obtained:
[1] = tested on: Kumulus-Eizell Komplexe; test: cumulus expansion test in vitro; assay type: cell-based, Mäusen; conditions: in competition with PGE2
Description: In immaturen weiblichen Mäusen (Stamm : CD1 (ICR) von Charles River) wird in einem Alter von 14-18 Tagen die Follikulogenese durch eine einmalige Gabe (intraperitoneal) von 10 I.E. PMSG (Pregnant Mare Serum Gonadotropine; Sigma G-4877, Lot 68H0909) induziert. 47 - 50 Stunden nach der Injektion werden die Ovarien entnommen und die Kumulus-Eizell Komplexe entnommen. Der Kumulus Komplex ist in diesem Stadium noch nicht expandiert. Die Kumulus-Eizell Komplexe werden nun für 20 - 24 Stunden mit Prostaglandin E2 (PGE2) (0,3 µM), Vehikel Kontrolle (Ethanol) oder Testsubstanzen inkubiert. Medium: alpha- MEM Medium mit 0,1 mM IBMX, Pyruvate (0,23 mM) Glutamine (2 mM), Pen/Strep 100 IU/ml Pen. und 100 µg/ml Strep.) und HSA (8 mg/ml)). Danach wird die Kumulus Expansion durch die Einteilung in vier Stadien (nach Vanderhyden et al. Dev Biol. 1990 Aug;140(2):307-317) festgestellt. Tabelle 1: Beispiel für die biologische Wirksamkeit der erfindungsgemäßen Verbindungen (gemessen mittels cAMP Antagonismustest): […]

[2] = molecular target: T1, humanen Prostaglandin E2 (Subtyp EP2) Rezeptor (Homo sapiens, UniProt P43116); test: cAMP antagonism test (HTRF cAMP detection, in presence of PGE2); assay type: cell-based; conditions: cAMP Antagonismustest, read-out: Antagonismus [IC50
T1 construct: host or cells: cells in a culture plate
T1 sequence (P43116 whole entry): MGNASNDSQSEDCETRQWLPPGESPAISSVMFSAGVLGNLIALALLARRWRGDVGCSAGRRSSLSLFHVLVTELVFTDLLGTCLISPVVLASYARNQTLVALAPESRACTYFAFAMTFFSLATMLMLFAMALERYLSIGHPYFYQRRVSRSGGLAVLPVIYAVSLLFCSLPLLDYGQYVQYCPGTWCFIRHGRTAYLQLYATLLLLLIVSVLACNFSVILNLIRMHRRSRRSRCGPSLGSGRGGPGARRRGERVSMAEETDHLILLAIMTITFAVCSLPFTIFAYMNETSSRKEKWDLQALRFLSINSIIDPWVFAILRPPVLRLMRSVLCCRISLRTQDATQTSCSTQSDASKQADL
Description: Die Bindung von PGE2 an den EP2-Subtyp des humanen PGE2-Rezeptors induziert die Aktivierung membranständiger Adenylatzyklasen und führt zur Bildung von cAMP. In Gegenwart des Phosphodiesteraseinhibitors IBMX wird das durch diese Stimulation akkumulierte und mittels Zell-Lyse freigesetzte cAMP in einem kompetitiven Nachweisverfahren eingesetzt. In diesem Test konkurriert das cAMP im Lysat mit cAMP-XL665 um die Bindung eines Eu-Kryptat markierten Anti-cAMP Antikörpers. Dabei entsteht in Abwesenheit von zellulärem cAMP ein maximales Signal, welches auf der Kopplung dieses Antikörpers an das cAMP-XL665 Molekül beruht. Dadurch entsteht nach Anregung bei 337 nm ein auf FRET (fluorescence resonance energy transfer) basierendes, lang anhaltendes Emissionssignal bei 665 nm (und bei […]). Beide Signale werden in einem geeigneten Messgerät zeitlich versetzt, d.h. nach Abklingen der Hintergrundsfluoreszenz gemessen. Jegliche Erhöhung des durch Prostglandin-E2-Gabe bedingten niedrigen FRET-Signals (gemessen als Well-Ratio-Veränderung = Emission665nm/Emission620nm * 10000) zeigt die Wirkung von Antagonisten.
Die in einer Testplatte und 30 % DMSO vorgelegten Substanzlösungen (0.75 µl) werden in 16 µl einer KRSB+IBMX-Stimulationslösung gelöst (1 X Krebs-Ringer Bicarbonate Buffer; Sigma-Aldrich # K-4002; inklusive 750 µM 3-Isobutyl-1-methylxanthine Sigma-Aldrich # I-7018), anschließend werden 15 µl davon in eine medienfreie Zellkulturplatte überführt, die kurz zuvor mit KRSB gewaschen worden war. Nach einer 30-minütigen Vorinkubation bei Raumtemperatur (RT) werden 5 µl einer 4xPGE2 Lösung (11 nM) zugegeben und in Gegenwart des Agonisten für weitere 60 min bei RT inkubiert (Volumen: - 20 µl), bevor die Reaktion anschließend durch Zugabe von 5 µl Lysispuffer gestoppt und für weitere 20 min bei RT inkubiert wird (Volumen: - 25 µl). Das Zell-Lysat wird anschließend in eine Messplatte überführt und entsprechend den Herstellerangaben (cyclic AMP kit Cisbio International # 62AMPPEC) gemessen.

[3] = molecular target: T1, humanen Prostaglandin E2 (Subtyp EP2) Rezeptor; test: cellular agonism test (HTRF cAMP detection, without PGE2); assay type: cell-based

Row | SMILES | Unterdrückung der Kumulus Expansion ([1]; 100 - 200 µM) | IC50 [2] | Wirkung im zellulären Agonismustest [3] | Unterdrückung der Kumulus Expansion ([1]; 10 µM)
1 | CC(C)Oc1ccc2c(=O)c3cc(C(=O)O)ccc3oc2c1 [AH 6809, reference compound] | ca. 30% | – | – | –
2 | CCOc1cccc(CCC(=O)NCCc2c(C)[nH]c3c(F)ccc(C)c23)c1 [Beispiel 7, 3-(3-Ethoxyphenyl)-N-[2-(7-fluoro-2,4-dimethyl-1 H-indol-3-yl)-ethyl]-propionamid] | – | 1200 nM | – | –
3 | Cc1[nH]c2c(F)ccc(C)c2c1CCNC(=O)CCc1ccc(F)cc1 [Beispiel 9, N-[2-(7-Fluoro-2,4-dimethyl-1 H-indol-3-yl)-ethyl]-3-(4-fluorophenyl)-propionamid] | – | 1500 nM | keine Inhibition | 20%
4 | Cc1[nH]c2c(F)ccc(C)c2c1CCNC(=O)/C=C/c1cc(F)cc(F)c1 [Beispiel 20, (E)-3-(3,5-Difluorphenyl)-N-[2-(7-fluor-2,4-dimethyl-1 H-indol-3-yl)-ethyl]-acrylamid] | – | 830 nM | – | –

From patent publication EP2014287A1, “Use of cinnamic acid derivatives as modulators of an EP2 receptor” (Bayer Schering Pharma Aktiengesellschaft, priority 2007, dated 2009)
